Patent US11969428B2, “Methods and pharmaceutical compositions for treating lymphoid malignancy” (priority 2011, dated 2024)

Experiments:
Test in all cases: Ambit KinomeScan screening
Format in all cases: binding
Conditions in all cases: CAL-130 10 μM
[1] = target: T1, EPHA1 (Homo sapiens, UniProt P21709)
T1 construct: purchased Ambit (KinomeScan screening service)
Description: (§1) CAL-130 (10 μM) was evaluated for its ability to prevent tagged kinases from interacting with immobilized “bait” ligand (Karaman et al., 2008). Results are reported as “% of control binding”, where lower numbers indicate stronger interactions with the tagged kinase. Values of >35% are considered “no hits”. PI3Kδ had the lowest percentage of control binding at 0.2% followed by PI3Kγ at 3.2% (See Table 1 below). These values indicate a high probability of a potent interaction. 353 kinases were assessed in the screen (Table 2).

[2] = target: T2, PRKD3 (Homo sapiens, UniProt O94806)
T2 construct: tag (kind not specified); purchased Ambit (KinomeScan screening service)
T2 sequence (O94806 whole entry): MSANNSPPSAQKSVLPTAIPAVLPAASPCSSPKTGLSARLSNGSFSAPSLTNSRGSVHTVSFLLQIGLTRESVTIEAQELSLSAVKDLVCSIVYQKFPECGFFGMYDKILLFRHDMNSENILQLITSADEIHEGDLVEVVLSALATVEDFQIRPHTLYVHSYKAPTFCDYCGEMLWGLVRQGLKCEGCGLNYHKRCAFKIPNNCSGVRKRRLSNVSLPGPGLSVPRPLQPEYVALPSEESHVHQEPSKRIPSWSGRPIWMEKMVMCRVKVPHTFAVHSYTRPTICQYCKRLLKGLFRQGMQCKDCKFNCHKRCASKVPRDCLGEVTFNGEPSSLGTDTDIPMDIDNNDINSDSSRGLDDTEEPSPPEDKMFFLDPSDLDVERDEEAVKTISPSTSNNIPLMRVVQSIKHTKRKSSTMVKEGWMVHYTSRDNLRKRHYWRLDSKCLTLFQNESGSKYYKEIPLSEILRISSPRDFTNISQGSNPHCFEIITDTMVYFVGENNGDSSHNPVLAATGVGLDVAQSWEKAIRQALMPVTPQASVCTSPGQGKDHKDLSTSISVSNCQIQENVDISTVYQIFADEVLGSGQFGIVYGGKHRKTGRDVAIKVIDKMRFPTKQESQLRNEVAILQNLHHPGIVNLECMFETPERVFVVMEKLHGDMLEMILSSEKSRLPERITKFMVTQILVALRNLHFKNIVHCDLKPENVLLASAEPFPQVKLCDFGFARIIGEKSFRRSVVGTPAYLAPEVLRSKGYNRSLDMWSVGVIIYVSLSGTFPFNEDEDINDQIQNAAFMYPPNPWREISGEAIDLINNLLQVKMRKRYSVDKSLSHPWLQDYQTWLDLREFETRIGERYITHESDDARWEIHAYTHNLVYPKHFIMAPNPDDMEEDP
Description: as §1

[3] = target: T3, FAK (Homo sapiens, UniProt Q05397)
T3 construct: unspecified tag ("tagged kinases"); purchased Ambit (KinomeScan screening service)
T3 sequence (Q05397 whole entry): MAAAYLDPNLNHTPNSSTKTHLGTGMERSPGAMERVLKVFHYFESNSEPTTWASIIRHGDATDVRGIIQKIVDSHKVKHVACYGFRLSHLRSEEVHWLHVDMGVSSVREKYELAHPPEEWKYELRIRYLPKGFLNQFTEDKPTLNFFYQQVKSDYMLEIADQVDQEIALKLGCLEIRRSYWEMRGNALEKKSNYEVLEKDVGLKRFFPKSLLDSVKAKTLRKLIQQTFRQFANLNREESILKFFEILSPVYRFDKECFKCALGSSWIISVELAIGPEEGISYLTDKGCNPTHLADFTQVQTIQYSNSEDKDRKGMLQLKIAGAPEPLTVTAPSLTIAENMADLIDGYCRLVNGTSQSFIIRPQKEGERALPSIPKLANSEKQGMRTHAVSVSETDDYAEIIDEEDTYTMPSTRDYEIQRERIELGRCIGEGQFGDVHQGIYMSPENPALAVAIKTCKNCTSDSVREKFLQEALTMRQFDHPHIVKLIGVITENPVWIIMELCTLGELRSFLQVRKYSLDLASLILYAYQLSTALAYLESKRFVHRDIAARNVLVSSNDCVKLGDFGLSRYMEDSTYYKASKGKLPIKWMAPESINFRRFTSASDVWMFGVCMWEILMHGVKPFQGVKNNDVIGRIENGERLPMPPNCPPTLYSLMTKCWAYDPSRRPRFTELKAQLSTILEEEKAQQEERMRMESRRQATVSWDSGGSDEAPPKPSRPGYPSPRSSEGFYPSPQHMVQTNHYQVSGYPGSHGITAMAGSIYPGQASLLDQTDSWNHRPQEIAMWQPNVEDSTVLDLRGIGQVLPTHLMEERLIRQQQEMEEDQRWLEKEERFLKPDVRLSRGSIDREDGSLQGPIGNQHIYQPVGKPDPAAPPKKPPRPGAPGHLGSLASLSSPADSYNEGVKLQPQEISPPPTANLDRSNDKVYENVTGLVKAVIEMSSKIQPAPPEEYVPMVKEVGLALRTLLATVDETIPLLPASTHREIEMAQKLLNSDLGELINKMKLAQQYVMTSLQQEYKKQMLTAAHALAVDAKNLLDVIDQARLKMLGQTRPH
Description: as §1

[4] = target: T4, CSK (Homo sapiens, UniProt P41240)
T4 construct: purchased Ambit (KinomeScan screening service)
Description: as §1

[5] = target: T5, RIOK1 (Homo sapiens, UniProt Q9BRS2)
T5 construct: unspecified tag (tagged kinase); purchased Ambit (KinomeScan screening)
Description: as §1

[6] = target: T6, GSK3A (Homo sapiens, UniProt P49840)
T6 construct: unspecified tag ('tagged kinases'); purchased Ambit (KinomeScan screening service)
T6 sequence (P49840 whole entry): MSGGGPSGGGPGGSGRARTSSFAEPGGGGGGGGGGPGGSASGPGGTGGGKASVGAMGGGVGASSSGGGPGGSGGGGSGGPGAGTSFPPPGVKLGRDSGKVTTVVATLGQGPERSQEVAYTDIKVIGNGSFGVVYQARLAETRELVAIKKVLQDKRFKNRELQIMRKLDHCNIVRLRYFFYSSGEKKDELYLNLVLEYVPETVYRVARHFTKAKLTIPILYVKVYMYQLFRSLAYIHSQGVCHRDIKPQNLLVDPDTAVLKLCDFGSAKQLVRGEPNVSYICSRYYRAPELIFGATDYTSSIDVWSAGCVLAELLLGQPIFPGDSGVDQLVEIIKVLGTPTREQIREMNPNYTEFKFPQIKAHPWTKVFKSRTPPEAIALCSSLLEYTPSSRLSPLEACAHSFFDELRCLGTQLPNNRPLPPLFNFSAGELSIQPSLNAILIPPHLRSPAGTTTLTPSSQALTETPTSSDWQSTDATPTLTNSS
Description: as §1

[7] = target: T7, EGFR(L858R, T790M) (Homo sapiens, UniProt P00533, L858R/T790M)
T7 construct: unspecified tag; purchased Ambit (KinomeScan screening service)
Description: as §1

[8] = target: T8, PIK3CB (Homo sapiens, UniProt P42338)
T8 construct: unspecified tag; purchased Ambit (KinomeScan screening panel)
T8 sequence (P42338 whole entry): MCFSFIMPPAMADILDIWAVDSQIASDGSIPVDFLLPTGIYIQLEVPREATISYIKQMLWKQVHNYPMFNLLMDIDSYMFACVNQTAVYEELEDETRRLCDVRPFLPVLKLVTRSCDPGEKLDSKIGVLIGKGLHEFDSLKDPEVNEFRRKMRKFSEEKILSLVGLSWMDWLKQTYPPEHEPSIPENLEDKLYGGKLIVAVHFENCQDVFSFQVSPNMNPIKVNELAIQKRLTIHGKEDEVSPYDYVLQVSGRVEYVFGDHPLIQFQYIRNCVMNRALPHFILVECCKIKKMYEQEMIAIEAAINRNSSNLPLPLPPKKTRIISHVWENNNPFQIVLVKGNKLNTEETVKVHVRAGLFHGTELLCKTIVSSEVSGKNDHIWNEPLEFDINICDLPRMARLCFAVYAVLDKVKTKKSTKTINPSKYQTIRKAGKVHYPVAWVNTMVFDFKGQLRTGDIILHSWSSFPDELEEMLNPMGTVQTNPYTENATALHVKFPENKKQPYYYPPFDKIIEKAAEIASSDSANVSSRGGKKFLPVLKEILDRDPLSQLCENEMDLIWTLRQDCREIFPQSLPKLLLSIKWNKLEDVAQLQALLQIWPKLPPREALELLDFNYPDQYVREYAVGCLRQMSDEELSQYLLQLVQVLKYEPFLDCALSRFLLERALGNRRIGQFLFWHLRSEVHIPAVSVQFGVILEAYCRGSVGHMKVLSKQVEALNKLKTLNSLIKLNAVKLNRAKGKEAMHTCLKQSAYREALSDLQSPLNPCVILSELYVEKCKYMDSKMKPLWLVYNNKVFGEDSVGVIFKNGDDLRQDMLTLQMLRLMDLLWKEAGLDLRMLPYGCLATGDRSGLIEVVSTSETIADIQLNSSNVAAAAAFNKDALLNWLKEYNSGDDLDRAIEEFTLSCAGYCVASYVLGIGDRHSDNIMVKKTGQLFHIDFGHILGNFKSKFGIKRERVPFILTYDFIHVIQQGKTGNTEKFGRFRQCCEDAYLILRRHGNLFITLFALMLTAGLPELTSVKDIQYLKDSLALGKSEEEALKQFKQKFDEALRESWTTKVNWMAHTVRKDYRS
Description: as §1

[9] = target: T9, CIT (Homo sapiens, UniProt O14578)
T9 construct: purchased Ambit (KinomeScan screening service)
Description: as §1

[10] = target: T10, HIPK1 (Homo sapiens, UniProt Q86Z02)
T10 construct: unspecified tag ('tagged kinases'); purchased Ambit (KinomeScan screening service)
Description: as §1

[11] = target: T11, MAP4K3 (Homo sapiens, UniProt Q8IVH8)
T11 construct: Ambit (KinomeScan screening)
Description: as §1

[12] = target: T12, DYRK1A (Homo sapiens, UniProt Q13627)
T12 construct: unspecified tag ("tagged kinases"); purchased Ambit (KinomeScan screening service)
Description: as §1

[13] = target: T13, CDC2L1 (Homo sapiens, UniProt P21127)
T13 construct: purchased Ambit (KinomeScan screening)
Description: as §1

[14] = target: T14, PDGFRA (Homo sapiens, UniProt P16234)
T14 construct: unspecified tag ('tagged kinases'); purchased Ambit (KinomeScan screening)
Description: as §1

[15] = target: T15, CSNK1G3 (Homo sapiens, UniProt Q9Y6M4)
T15 construct: purchased Ambit (KinomeScan screening service)
Description: as §1

[16] = target: T16, LCK (Homo sapiens, UniProt P06239)
T16 construct: unspecified tag ('tagged kinases'); purchased Ambit (KinomeScan screening service)
Description: as §1

[17] = target: T17, NIM1 (Homo sapiens, UniProt Q8IY84)
T17 construct: purchased Ambit (KinomeScan screening service)
Description: as §1

[18] = system: PAK5
Description: as §1

[19] = target: T18, MAP3K15 (Homo sapiens, UniProt Q6ZN16)
T18 construct: Ambit (KinomeScan screening)
Description: as §1

[20] = target: T19, BRAF(V600E) (Homo sapiens, UniProt P15056, V600E)
T19 construct: unspecified tag ("tagged kinases"); purchased Ambit (KinomeScan screening)
Description: as §1

[21] = target: T20, PFTAIRE2 (Homo sapiens, UniProt Q96Q40)
T20 construct: unspecified tag ('tagged kinases'); purchased Ambit (KinomeScan screening)
T20 sequence (Q96Q40 whole entry): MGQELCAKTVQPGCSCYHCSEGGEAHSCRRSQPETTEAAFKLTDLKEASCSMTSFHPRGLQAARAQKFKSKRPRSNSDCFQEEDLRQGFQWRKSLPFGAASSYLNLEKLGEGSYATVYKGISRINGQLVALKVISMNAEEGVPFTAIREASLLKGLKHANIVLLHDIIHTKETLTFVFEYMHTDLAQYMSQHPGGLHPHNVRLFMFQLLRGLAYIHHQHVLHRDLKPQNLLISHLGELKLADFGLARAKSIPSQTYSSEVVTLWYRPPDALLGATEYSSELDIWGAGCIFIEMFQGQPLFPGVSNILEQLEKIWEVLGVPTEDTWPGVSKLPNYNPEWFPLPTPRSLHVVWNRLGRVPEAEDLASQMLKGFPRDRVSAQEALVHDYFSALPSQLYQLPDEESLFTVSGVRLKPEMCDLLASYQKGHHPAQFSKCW
Description: as §1

[22] = target: T21, CSNK1A1L (Homo sapiens, UniProt Q8N752)
T21 construct: purchased Ambit (KinomeScan screening service)
T21 sequence (Q8N752 whole entry): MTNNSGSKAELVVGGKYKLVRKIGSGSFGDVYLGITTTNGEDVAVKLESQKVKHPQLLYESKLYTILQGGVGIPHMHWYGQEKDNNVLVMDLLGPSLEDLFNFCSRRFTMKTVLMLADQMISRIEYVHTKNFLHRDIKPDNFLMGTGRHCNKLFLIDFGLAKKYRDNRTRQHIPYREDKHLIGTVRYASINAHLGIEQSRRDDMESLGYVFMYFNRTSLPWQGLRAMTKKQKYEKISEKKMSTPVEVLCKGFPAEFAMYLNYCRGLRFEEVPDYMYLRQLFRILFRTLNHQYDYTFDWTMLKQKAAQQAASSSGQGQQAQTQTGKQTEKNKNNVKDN
Description: as §1

[23] = target: T22, p38-β (Homo sapiens, UniProt Q15759)
T22 construct: purchased Ambit (KinomeScan screening service)
Description: as §1

[24] = target: T23, ERK5 (Homo sapiens, UniProt Q13164)
T23 construct: unspecified tag ("tagged kinases"); purchased Ambit (KinomeScan screening service)
Description: as §1

[25] = target: T24, RPS6KA6 (Homo sapiens, UniProt Q9UK32)
T24 construct: tag, kind not specified; purchased Ambit (KinomeScan screening service)
Description: as §1

[26] = target: T25, ARK5 (Homo sapiens, UniProt O60285)
T25 construct: purchased Ambit (KinomeScan screening service)
Description: as §1

[27] = target: T26, RPS6KA5 (Homo sapiens, UniProt O75582)
T26 construct: tag, kind not specified; purchased Ambit (KinomeScan screening service)
Description: as §1

[28] = target: T27, TGFBR1 (Homo sapiens, UniProt P36897)
T27 construct: unspecified tag (tagged kinase); purchased Ambit (KinomeScan screening)
Description: as §1

[29] = target: T28, FRK (Homo sapiens, UniProt P42685)
T28 construct: unspecified tag ('tagged kinases'); purchased Ambit (KinomeScan screening service)
Description: as §1

[30] = target: T29, CDK11 (Homo sapiens, UniProt Q9BWU1)
T29 construct: purchased Ambit (KinomeScan screening)
Description: as §1

[31] = target: T30, DMPK2 (Homo sapiens, UniProt Q6DT37)
T30 construct: unspecified tag ("tagged kinases"); purchased Ambit (KinomeScan screening service)
Description: as §1

[32] = target: T31, ASK1 (Homo sapiens, UniProt Q99683)
T31 construct: purchased Ambit (KinomeScan screening service)
Description: as §1

[33] = target: T32, MEK4 (Homo sapiens, UniProt P45985)
T32 construct: purchased Ambit (KinomeScan screening)
Description: as §1

[34] = target: T33, RET (Homo sapiens, UniProt P07949)
T33 construct: tag (kind not specified); purchased Ambit (KinomeScan screening service)
Description: as §1

[35] = target: T34, DCAMKL1 (Homo sapiens, UniProt O15075)
T34 construct: unspecified tag ("tagged kinases"); purchased Ambit (KinomeScan screening service)
Description: as §1

[36] = target: T35, IRAK1 (Homo sapiens, UniProt P51617)
T35 construct: Ambit (KinomeScan screening)
T35 sequence (P51617 whole entry): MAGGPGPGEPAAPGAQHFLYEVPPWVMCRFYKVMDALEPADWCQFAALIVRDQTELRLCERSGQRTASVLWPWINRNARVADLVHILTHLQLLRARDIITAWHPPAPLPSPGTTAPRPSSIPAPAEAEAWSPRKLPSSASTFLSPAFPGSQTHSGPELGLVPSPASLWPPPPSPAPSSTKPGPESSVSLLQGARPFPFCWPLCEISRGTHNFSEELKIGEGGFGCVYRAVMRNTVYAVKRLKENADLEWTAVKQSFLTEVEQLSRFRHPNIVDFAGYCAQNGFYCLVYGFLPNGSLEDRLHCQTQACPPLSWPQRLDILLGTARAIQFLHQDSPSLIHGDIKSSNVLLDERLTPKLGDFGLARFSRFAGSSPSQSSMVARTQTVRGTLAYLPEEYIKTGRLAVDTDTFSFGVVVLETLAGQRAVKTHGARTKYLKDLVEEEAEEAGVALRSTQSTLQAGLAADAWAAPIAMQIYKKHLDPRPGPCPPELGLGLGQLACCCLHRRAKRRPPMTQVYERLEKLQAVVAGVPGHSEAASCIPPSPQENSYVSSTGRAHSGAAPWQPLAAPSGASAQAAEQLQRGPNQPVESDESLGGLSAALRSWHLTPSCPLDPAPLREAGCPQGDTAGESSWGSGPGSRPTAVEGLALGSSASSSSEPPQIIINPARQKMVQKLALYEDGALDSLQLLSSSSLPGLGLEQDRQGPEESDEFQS
Description: as §1

Cc1ccccc1-n1c(C(C)Nc2nc(N)nc3nc[nH]c23)nc2cccc(C)c2c1=O (stereo not shown) [CAL-130]
Percent of Control Binding [1]: 100%
Percent of Control Binding [2]: 100%
Percent of Control Binding [3]: 100%
Percent of Control Binding [4]: 100%
Percent of Control Binding [5]: 100%
Percent of Control Binding [6]: 100%
Percent of Control Binding [7]: 100%
Percent of Control Binding ([8]; PI3KCB (Table 2)): 10%
Percent of Control Binding ([8]; PIK3CB (Table 1)): 3.2%
Percent of Control Binding [9]: 100%
Percent of Control Binding [10]: 100%
Percent of Control Binding [11]: 100%
Percent of Control Binding [12]: 100%
Percent of Control Binding [13]: 100%
Percent of Control Binding [14]: 100%
Percent of Control Binding [15]: 100%
Percent of Control Binding [16]: 100%
Percent of Control Binding [17]: 100%
Percent of Control Binding [18]: 100%
Percent of Control Binding [19]: 100%
Percent of Control Binding [20]: 100%
Percent of Control Binding [21]: 100%
Percent of Control Binding [22]: 100%
Percent of Control Binding [23]: 100%
Percent of Control Binding [24]: 100%
Percent of Control Binding [25]: 100%
Percent of Control Binding [26]: 100%
Percent of Control Binding [27]: 100%
Percent of Control Binding [28]: 100%
Percent of Control Binding [29]: 100%
Percent of Control Binding [30]: 100%
Percent of Control Binding [31]: 100%
Percent of Control Binding [32]: 100%
Percent of Control Binding [33]: 100%
Percent of Control Binding [34]: 100%
Percent of Control Binding [35]: 100%
Percent of Control Binding [36]: 100%
